In US20020173452A1, “Cytostatic-glycoconjugates having specifically cleavable linking units” (priority 2000, published 2002):
*1 amine or outer side, *2 acyl side, *3 side chain or, on linkers, in order; H or OH if unused. Where a SMILES comes first, the peptide text is derived from it. [ ]: non-standard residue; d: D form. The star is where a group is joined. ξ: configuration not given here. Camptothecin(20R,20-O) = CC[C@]1(O*)C(=O)OCc2c1cc1n(c2=O)Cc2cc3ccccc3nc2-1; X5 = C[C@H]1O[C@@H](Oc2ccc(NC(=S)*)cc2)[C@@H](O)[C@@H](OCC(N)=O)[C@H]1O; X1 = CO[C@H]1[C@@H](O)[C@@H](C)OC(Oc2ccc(NC(=S)*)cc2)[C@H]1O; X2 = CC[C@@]1(O*)C(=O)OCc2c1cc1n(c2=O)Cc2cc3ccccc3nc2-1; X3 = CO[C@H]1[C@@H](O)[C@@H](C)OC(Oc2ccc(N*)cc2)[C@H]1O; CO = O=C([*:1])[*:2]; ξV = CC(C)C(N)C(=O)O; ξP = O=C(O)C1CCCN1

Assays:
[1] = tested on: subcutaneously growing melanoma xenograft model (MEXF 989); test: In-vivo inhibition of tumour growth using a nude mouse model; parameters: species or system athymic nude mice (NMRI nu/nu strain); conditions: for optimal T/C in % / lethality: MEXF 989 xenograft, nude mice, i.v. or i.p., day 1-3 and day 15-17; for lethality: dead/5 mice; for inhibition of the tumor growth (in words): subcutaneously growing melanoma xenograft MEXF 989, nude mice
Excerpt: B. In-Vivo Inhibition or Tumour Growth Using a Nude Mouse Model
In all in-vivo experiments for investigating the inhibition of tumour growth, athymic nude mice (NMRI nu/nu strain) were used. The tumour was developed by serial passage in nude mice. The human origin of the tumour was confirmed by isoenzymatic and immunohistochemical methods.
The tumour was implanted subcutaneously in both flanks of nu/nu nude mice 6 to 8 weeks old. The treatment was started, depending on the doubling time, as soon as the tumours had reached a diameter of 5-7 mm. The mice were assigned to the treatment group or the control group (5 mice per group having 8-10 assessable tumours) by randomization. The individual tumours of the control group all grew progressively.
The size of the tumours was measured in two dimensions by means of a slide gauge. The tumour volume, which correlated well with the cell count, was then used for all assessments. The volume was calculated according to the formula “length×breadth×breadth/2” ([a×b^2]/2, a and b represent two diameters arranged at right angles).
The values of the relative tumour volume (RTV) were calculated for each individual tumour by dividing the tumour size on day×with the tumour size on day 0 (at the time of randomization). The average values of the RTV were then used for the further assessment.
The inhibition of the increase of the tumour volume (tumour volume of the test group/control group, T/C, in percent) was the final measured value.
The compounds can be administered with a daily or an intermittent therapy schedule through a couple of days either by intraperitoneal, intravenious, oral or subcutaneous route.
The compounds are dissolved in water or in PEG400/water 2:1 and are administered intravenously or intraperitoneally from day 1-3 and day 15-17.

MMP-2 = target: T1, MMP-2 (Homo sapiens, UniProt P08253); test: Cleavage of conjugates by MMP-2 in buffer; assay type: biochemical; conditions: after 6 h incubation with MMP-2 in buffer pH 7.5, HPLC peak areas
T1 construct: purchased Calbiochem
T1 sequence (P08253 110-660): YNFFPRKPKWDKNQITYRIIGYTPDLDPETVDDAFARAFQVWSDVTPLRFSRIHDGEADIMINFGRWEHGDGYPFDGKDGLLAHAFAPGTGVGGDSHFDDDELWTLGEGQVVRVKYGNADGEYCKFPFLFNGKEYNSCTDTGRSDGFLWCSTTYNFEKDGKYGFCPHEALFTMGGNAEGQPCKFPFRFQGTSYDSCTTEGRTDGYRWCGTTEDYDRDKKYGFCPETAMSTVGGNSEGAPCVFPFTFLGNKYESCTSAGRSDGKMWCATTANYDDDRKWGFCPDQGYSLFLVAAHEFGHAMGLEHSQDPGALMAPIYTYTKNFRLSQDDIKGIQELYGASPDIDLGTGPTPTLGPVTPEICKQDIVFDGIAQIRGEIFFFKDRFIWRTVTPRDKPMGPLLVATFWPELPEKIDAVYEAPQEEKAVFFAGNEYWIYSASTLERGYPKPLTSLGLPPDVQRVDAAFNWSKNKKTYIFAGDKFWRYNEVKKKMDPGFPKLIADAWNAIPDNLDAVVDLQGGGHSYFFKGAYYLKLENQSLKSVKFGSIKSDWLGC
Procedure: D. Cleavage of Conjugates by MMP-2 in Buffer
2.5 μl MMP-2 (Calbiochem) with a specific activity of 60μU/μl are incubated with 10 nM of the conjugates exemplified in the example series 1-25 in 1 ml of a medium consisting of 50 mM Tris-HCl pH 7.5, 0.2 M NaCl, 10 mM CaCl2*2H2O and 0,05% Brij 35. The enzyme mediated cleavage of the conjugates is detected by HPLC analysis using an RP18 (5 μM) column with 70% HClO4 /water (0.4% v/v) as eluent A and acetonitrile as eluent B (UV detection at […]). The efficiency of the cleavage is assessed by comparing the peak areas of the intact conjugate (starting material) and the cleavage product (tripeptide conjugate of camptothecin) after 6 h and 24 h incubation (cf, Table 4).

[2] = tested on: B16F10 mouse melanoma cell line; test: Growth inhibition test (MTT) for cytotoxic properties on tumour cell lines; assay type: cell-based; conditions: B16F10 cells, growth checked after day 6, read-out: IC50 of the cytotoxic action on tumour cell lines, B16F10
Procedure: (§1) A: Growth Inhibition Test for the Determination of the Cytotoxic Properties on Various Tumour Cell Lines
(§2) The human large intestine cell lines SW 480 and HT29 (ATCC No. CCL 228 and HTB38 and the mouse melanoma cell line B16F10 (CRL 6475) were grown to confluence in Roux dishes in RPMI 1640 medium with addition of 10% FCS. They were then trypsinized and taken up in RPMI plus 10% FCS to a cell count of 50,000 cells or, for B16F10, 20,000 cells per ml. 100 μl of cell suspension/well were added to a 96 microwell plate and incubated at 37° C. for 1 day in a CO2 incubator. A further 100 μl of RPMI medium and 1 μl of DMSO were then added with the test substances. The growth was checked after day 6. For this, 25 μl of MTT solution (3-(4,5-dimethylthiazol-2-yl)-2,5-diphenyltetrazolium bromide) was added to each well at a starting concentration of 5 mg/ml of H2O. The plate was incubated at 37° C. for 5 hours in a CO2 incubator. The medium was then aspirated and 100 μl of 1-propanol/well were added. After shaking with 100 μl of H2O for 30 min, the extinction was measured at 595 nm using a Multiplate Reader (BIO-RAD 3550-UV).
(§3) The cytostatic action is indicated in Table 1 as an IC50 value, in each case for the individual cell lines.

[3] = tested on: SW 480 human large intestine cell line; test: as above; assay type: cell-based; conditions: SW480 cells, growth checked after day 6, read-out: IC50 of the cytotoxic action on tumour cell lines, SW480
Procedure: as §1, §2, §3

[4] = tested on: HT29 human large intestine cell line; test: as above; assay type: cell-based; conditions: HT29 cells, growth checked after day 6, read-out: IC50 of the cytotoxic action on tumour cell lines, HT29
Procedure: as §1, §2, §3

[5] = tested on: hemopoietic stem cells (bone marrow cells); test: cells; assay type: cell-based, mice; conditions: murine bone marrow cells, recombinant murine GM-CSF, 7 days
Procedure: C. CSF-Induced Proliferation of Hemopoietic Stem Cells
Bone marrow cells are flushed out of the femur of mice. 105 cells are incubated in McCoy 5A medium (0.3% agar) together with recombinant murine GM-CSF (Genzyme; parent cell colony formation) and the substances (10^−4 to 100 μg/ml) at 37° C. and 7% CO2. 7 days later, the colonies ([…]) and clusters (17-50 cells) are counted.

Row | Structure (SMILES) | optimal T/C in % ([1]; 6 mg/kg/day) [%] | lethality ([1]; 6 mg/kg/day) | inhibition of the tumor growth (in words) [1] | MMP-2 mediated cleavage, peak area product/educt × 100 (MMP-2) | IC50 [2] [nM] | IC50 [3] [nM] | IC50 [4] [nM] | IC50 of inhibition of colony counts of hemopoietic stem cells [5] [µg/mL] | IC50 ([5]; Mus musculus, Bone marrow cell, 168 h, read-out: IC50 of inhibition of colony counts of hemopoietic stem cells) [µg/mL] | optimal T/C in % ([1]; 8 mg/kg/day) [%] | lethality ([1]; 8 mg/kg/day)
1 | CC[C@@]1(OC(=O)[C@H](NC(=O)[C@@H](CC(N)=O)NC(=O)[C@@H](CC(C)C)NC(=O)CNC(=O)[C@H](CC(C)C)NC(=O)[C@H]2CCCN2C(=S)Nc2ccc(OC3O[C@H](C)[C@H](O)[C@H](OC)[C@@H]3O)cc2)C(C)C)C(=O)OCc2c1cc1n(c2=O)Cc2cc3ccccc3nc2-1 (stereo partly drawn) [Example 5] (X1-[dP]LG[dL][dN][dV]-X2) | 19.1 | 1/5 | effected inhibitions of the tumor growth | 166 | 300 | 80 | 60 |  |  |  | 
2 | CC[C@@]1(OC(=O)[C@H](NC(=O)[C@@H](Cc2c[nH]cn2)NC(=O)CNC(=O)[C@H](CC(C)C)NC(=O)[C@H]2CCCN2C(=S)Nc2ccc(OC3O[C@H](C)[C@H](O)[C@H](OC)[C@@H]3O)cc2)C(C)C)C(=O)OCc2c1cc1n(c2=O)Cc2cc3ccccc3nc2-1.Cl (some centres unmarked) [Example 2] |  |  | effected inhibitions of the tumor growth |  |  | 150 | 70 |  |  |  | 
3 | CC[C@@]1(OC(=O)[C@H](NC(=O)[C@@H](Cc2c[nH]cn2)NC(=O)[C@@H](CC(C)C)NC(=O)CNC(=O)[C@H](CC(C)C)NC(=O)[C@H]2CCCN2C(=S)Nc2ccc(OC3O[C@H](C)[C@H](O)[C@H](OC)[C@@H]3O)cc2)C(C)C)C(=O)OCc2c1cc1n(c2=O)Cc2cc3ccccc3nc2-1.Cl (stereo partly drawn) [Example 12] (X1-[dP]LG[dL][dH][dV]-X2) |  |  |  |  | 300 | 150 | 100 | 0.03 |  |  | 
4 | CC[C@@]1(OC(=O)[C@H](NC(=O)[C@@H](Cc2c[nH]cn2)NC(=O)[C@@H](CC(C)C)NC(=O)CNC(=O)[C@H](CC(C)C)NC(=O)[C@H]2CCCN2C(=O)Nc2ccc(OC3O[C@H](C)[C@H](O)[C@H](OC)[C@@H]3O)cc2)C(C)C)C(=O)OCc2c1cc1n(c2=O)Cc2cc3ccccc3nc2-1.Cl (stereo partly drawn) [Example 4] ({X3-CO}-[dP]LG[dL][dH][dV]-X2) |  |  |  | 700 | 150 | 50 | 40 |  |  |  | 
5 | CC[C@@]1(O)C(=O)OCc2c1cc1n(c2=O)Cc2cc3ccccc3nc2-1 [Camptothecin, 20(S)-Camptothecin, reference compound] |  |  |  |  |  |  |  |  | 0.00025 |  | 
6 | CC[C@@]1(OC(=O)[C@H](NC(=O)[C@@H](CC(N)=O)NC(=O)[C@@H](CC(C)C)NC(=O)CNC(=O)[C@H](CC(C)C)NC(=O)[C@H]2CCCN2C(=O)Nc2ccc(OC3O[C@H](C)[C@H](O)[C@H](OC)[C@@H]3O)cc2)C(C)C)C(=O)OCc2c1cc1n(c2=O)Cc2cc3ccccc3nc2-1 (stereo partly drawn) [Example 6] ({X3-CO}-[dP]LG[dL][dN][dV]-X2) |  |  |  | 80 | 300 | 60 | 50 |  |  |  | 
7 | CC[C@@]1(OC(=O)[C@H](NC(=O)[C@@H](CC(=O)O)NC(=O)[C@@H](CC(C)C)NC(=O)CNC(=O)[C@H](CC(C)C)NC(=O)[C@H]2CCCN2C(=S)Nc2ccc(OC3O[C@H](C)[C@H](O)[C@H](OC)[C@@H]3O)cc2)C(C)C)C(=O)OCc2c1cc1n(c2=O)Cc2cc3ccccc3nc2-1 (stereo partly drawn) [Example 7] (X1-[dP]LG[dL][dD][dV]-X2) |  |  |  | 9 | 600 | 200 | 100 |  |  |  | 
8 | CC[C@@]1(OC(=O)[C@H](NC(=O)[C@@H](Cc2c[nH]cn2)NC(=O)[C@@H](CC(C)C)NC(=O)CNC(=O)[C@H](CC(C)C)NC(=O)[C@H]2CCCN2C(=S)Nc2ccc(OC3O[C@H](C)[C@H](O)[C@H](OC)[C@@H]3O)cc2)C(C)C)C(=O)OCc2c1cc1n(c2=O)Cc2cc3ccccc3nc2-1.Cl (stereo partly drawn) [Example 3] (X1-[dP]LG[dL][dH][dV]-X2) |  |  |  | 609 | 150 | 100 | 50 | 0.04 |  | 19.1 | 1/5
9 | CC[C@@]1(OC(=O)[C@H](NC(=O)[C@@H](Cc2c[nH]c3ccccc23)NC(=O)[C@@H](CC(C)C)NC(=O)CNC(=O)[C@H](CC(C)C)NC(=O)[C@H]2CCCN2C(=S)Nc2ccc(OC3O[C@H](C)[C@H](O)[C@H](OC)[C@@H]3O)cc2)C(C)C)C(=O)OCc2c1cc1n(c2=O)Cc2cc3ccccc3nc2-1 (stereo partly drawn) [Example 9] (X1-[dP]LG[dL][dW][dV]-X2) |  |  |  | 64 | 1000 | 400 | 300 |  |  |  | 
10 | CC[C@]1(OC(=O)C(NC(=O)[C@@H](CC(N)=O)NC(=O)[C@@H](CC(C)C)NC(=O)CNC(=O)[C@H](CC(C)C)NC(=O)C2CCCN2C(=S)Nc2ccc(O[C@@H]3O[C@H](C)[C@H](O)[C@H](OCC(N)=O)[C@@H]3O)cc2)C(C)C)C(=O)OCc2c1cc1n(c2=O)Cc2cc3ccccc3nc2-1 (stereo partly drawn) [Example 26] (X5-[ξP]LG[dL][dN][ξV]-{Camptothecin(20R,20-O)}) |  |  |  |  | 450 | 150 | 90 |  |  |  | 
